Non-standard residues stand in square brackets, D forms with d. Residues, ends and D or L forms follow the SMILES beside them. *: point of attachment. Nle = CCCC[C@H](N)C(=O)O; Cbz = O=C(OCc1ccccc1)*
Columns and labels:
hTERT [1] = assay: Ubiquitination of hTERT in H1299 cells (immunoprecipitation, anti-HA immunoblot); format: cell-based, human
Experimental: (§1) FIG. 2. hTERT is ubiquitinated prior to proteasome-mediated degradation. (A) H1299 cells were co-transfected with Flag-hTERT and HA-ubiquitin. Cells were either untreated or treated for 2 hours with 10 μg/ml ALLnN or 0.1 μM GA, or a combination of the two as specified above each lane. Immunoprecipitation was performed with anti-Flag antibody before probing with anti-hTERT or anti-HA antibodies as indicated besides each blot. Molecular weight markers are shown in kilodaltons. (B) H1299 cells co-transfected with Flag-hTERT and HA-ubiquitin were treated for 1 hour with the GA concentration indicated in the presence of 10 μM MG132. Immunoprecipitation was performed with anti-Flag antibody followed by immunoblotting using an anti-HA antibody probe. (C) H1299 cells co-transfected with Flag-hTERT and HA-ubiquitin were either untreated or treated for 2 hours with 10 μg/ml ALLnN as specified above each lane. Proteins were immunoprecipated with anti-Flag antibody followed by immunoblotting using an anti-HA antibody probe.
FIG. 4. MKRN1 functions as an E3 ubiquitin-ligase for hTERT in vitro and in vivo. (A) HA-tagged hTERT (residues 946-1132) was incubated MKRN1 or mutants in the presence of E1, E2, His6-ubiquitin (6×His tag disclosed as SEQ ID NO: 7). Samples were resolved by 6% SDS-PAGE and analyzed by immunoblotting with an anti-HA antibody probe. (B) H1299 cells were co-transfected with Flag-hTERT, HA-ubiquitin, MKRN1-V5, and together with either MKRN1^H307E-V5 or MKRN1^Δ^C-V5 as specified. Cells were untreated or treated with 10 μM MG132 for 2 hours. Anti-Flag immunoprecipitates and cell lysates were analyzed by immunoblotting with anti-HA antibody and anti-V5 antibody probes, respectively. (C) H1299 cells co-transfected with Flag-hTERT and HA-ubiquitin, and together with or without MKRN1-V5 as indicated were treated with 10 μM MG132 for the indicated times. Anti-Flag immunoprecipitates and cell lysates were analyzed by immunoblotting with anti-HA antibody and anti-V5 antibody probes, respectively.
H1299 cells were transiently transfected with the expression vectors indicated in the figure legends using TransFast transfection reagent (Promega, Madison, Wis.) according to the manufacturer's instructions. Cells were lysed with buffer containing 0.5% NP-40, 50 mM Tris-HCl (pH 7.5), 150 mM NaCl, 2 mM phenyl methylsulphonyl fluoride. After centrifugation at 12,000 rpm for 30 min, the supernatants were immunoprecipitated for 2 hours with anti-Flag (Sigma, St. Louis, Mo.) or anti-HA (Santa Cruz biotechnology, Santa Cruz, Calif.) antibodies and then incubated with Sepharose beads conjugated to Protein G (Amersham Biosciences Inc., Piscataway, N.J.). When ubiquitin conjugates of hTERT were detected, immunoprecipitation was performed with lysis buffer containing 0.1% SDS to dissociate its interacting proteins. Immunoblot analyses were performed using anti-hTERT (Santa Cruz biotechnology, Santa Cruz, Calif.), anti-V5 (Invitrogen, Carlsbad, Calif.), anti-HA, and anti-Flag antibodies.
GA-mediated protein degradation by the proteasome depends on conjugation of ubiquitin to the Hsp90 client protein (Isaacs et al. 2002; Citri et al. 2002). To determine whether hTERT is ubiquitinated in vivo prior to its degradation, H1299 cells co-transfected with Flag-tagged hTERT and HA-tagged ubiquitin constructs were treated with GA, ALLnN (a general proteasome inhibitor) or both. The immunoprecipitated products were evaluated by immunoblotting with selected probes as described in FIG. 2. […]

hTERT [2] = assay: hTERT protein levels by immunoblotting in H1299 cells; format: cell-based, human
Experimental: FIG. 1. hTERT is sensitive to the Hsp90 antagonist geldanamycin. (A) Down-regulation of ectopically expressed hTERT by GA. H1299 cells transfected with Flag-hTERT or Flag-TRF1 were treated with 0.1 μM GA for the indicated times. Lysates were resolved on 8% SDS-PAGE and analyzed by immunoblotting using an anti-Flag antibody probe. Cells were pretreated with 10 μM MG132 or E-64 for 2 hours, either alone or before treatment with GA. (B) Concentration dependence of GA on hTERT. H1299 cells transfected with Flag-hTERT or hTERT-HA were treated for 2 hours with the GA concentration indicated. The hTERT polypeptides were visualized with anti-Flag or anti-HA antibodies as marked by each blot. (C) Down-regulation of endogenous hTERT by GA. H1299 cells were treated with 0.1 μM GA for the indicated times, and cell lysates were analyzed by immunoprecipitation with anti-hTERT antibody followed by immunoblotting using same antibody probe. Cells were pretreated with 10 μM MG132 for 2 hours, either alone or before treatment with GA. Molecular weight markers are shown in kilodaltons. (D) H1299 cells were treated with 0.1 μM GA for the indicated times, and cell lysates were analyzed for telomerase activity by the TRAP assay. The lane labeled LB corresponds to the negative control (lysis buffer only). ITAS represents the internal telomerase assay standard. (E) Saos-2 cells transfected with Flag-hTERT or hTERT-HA or empty vector were untreated or treated with 0.1 μM GA for 16 hours, and cell lysates were analyzed for telomerase activity using the TRAP assay.
as §1
The human lung carcinoma cell line H1299 was cultured in RPMI-1640 medium, and the human fibrosarcoma cell line HT1080 was cultured in Dulbecco's modified Eagle's medium supplemented with 10% fetal bovine serum, 100 units/ml penicillin, and 100 μg/ml streptomycin in 5% CO2 at 37° C. The human osteosarcoma cell line Saos-2 was maintained in McCoy's 5A medium containing 15% fetal bovine serum, 100 units/ml penicillin, and 100 μg/ml streptomycin. To establish cell lines stably expressing MKRN1, the MKRN1-V5 construct was transfected into HT1080 cells using Lipofectamine Plus (Invitrogen, Carlsbad, Calif.) according to the manufacturer's instructions. As a control, HT1080 cells were also stably transfected with an empty vector. Multiple independent single clones were isolated and checked for protein expression by immunoblotting with anti-V5 antibody.
H1299 cells were transiently transfected with the expression vectors indicated in the figure legends using TransFast transfection reagent (Promega, Madison, Wis.) according to the manufacturer's instructions. Cells were lysed with buffer containing 0.5% NP-40, 50 mM Tris-HCl (pH 7.5), 150 mM NaCl, 2 mM phenyl methylsulphonyl fluoride. […]

Structure (SMILES)	polyubiquitinated hTERT forms in absence of GA (hTERT [1]; H1299, 10 μg/ml ALLnN, 2 hours, FIG. 2C)	ubiquitinated hTERT (hTERT [1]; H1299 Flag-hTERT and HA-ubiquitin, 10 μg/ml ALLnN, 2 hours, FIG. 2A)	effect on GA-induced decrease of hTERT levels (hTERT [2]; H1299 Flag-hTERT and HA-ubiquitin, 10 μg/ml ALLnN plus 0.1 μM GA, 2 hours)	hTERT levels (hTERT [2]; H1299 co-transfected with Flag-hTERT and HA-ubiquitin, 2 hours, single agent (0.1 μM GA or 10 μg/ml ALLnN))	hTERT-ubiquitin conjugates without MKRN1 co-expression (hTERT [1]; H1299 Flag-hTERT plus HA-ubiquitin, 10 μM MG132, 45-60 minutes)	ubiquitin conjugates of hTERT (hTERT [1]; H1299 co-transfected with Flag-hTERT, HA-ubiquitin, MKRN1-V5, 10 μM MG132, 2 hours)	effect on GA-induced degradation of endogenous hTERT (hTERT [2]; H1299, 10 μM MG132 pretreatment 2 hours before GA)	effect on GA-induced down-regulation of hTERT (hTERT [2]; H1299 Flag-hTERT, 10 μM pretreatment 2 hours, then GA 4 hours)	hTERT expression levels, inhibitor alone (hTERT [2]; H1299 Flag-hTERT, 10 μM, absence of GA, relative to untreated controls)
CCCC[C@@H](C=O)NC(=O)[C@H](CC(C)C)NC(=O)[C@H](CC(C)C)NC(C)=O [ALLnN] (Ac-Leu-Leu-[Nle]-aldehyde)	significantly elevated	dramatically elevated	reversed this trend	did not affect	–	–	–	–	–
CC(C)C[C@@H](C=O)NC(=O)[C@H](CC(C)C)NC(=O)[C@H](CC(C)C)NC(=O)OCc1ccccc1 [MG132] (Cbz-Leu-Leu-Leu-aldehyde)	–	–	–	–	low levels were detected	easily detected	rescued	rescued	did not cause a significant change

Reference: patent US7901906B2, “Targeting of MKRN1 for identifying cancer treatment agents” (University of Central Florida Research Foundation, Inc., priority 2006, dated 2011)
